From the NIST ThermoML archive (doi:10.1016/j.jct.2018.08.013)
Several values for one entry are separate records, joined by “and”; a condition that tells them apart may be missing. Equal entries are not always repeated.

Assay: specific heat capacity at constant pressure; xn = mol fraction of the nth substance listed
Settings: 100 kPa, Crystal of intercomponent compound 1, relaxation calorimetry, x2 = 0.486

[Te] [tellurium] + [Ga]
Settings | specific heat capacity
14.14 K | 12.49 J/K/kg
14.15 K | 12.53 J/K/kg
16.16 K | 17.22 J/K/kg
16.18 K | 17.24 J/K/kg
18.17 K | 22.39 J/K/kg and 22.38 J/K/kg
18.18 K | 22.43 J/K/kg
20.18 K | 27.78 J/K/kg
20.19 K | 27.77 J/K/kg
20.2 K | 27.79 J/K/kg
22.21 K | 33.2 J/K/kg
22.22 K | 33.22 J/K/kg
24.22 K | 38.74 J/K/kg
24.23 K | 38.79 J/K/kg
26.24 K | 44.36 J/K/kg and 44.33 J/K/kg and 44.32 J/K/kg
28.25 K | 49.69 J/K/kg
28.26 K | 49.67 J/K/kg
30.27 K | 54.94 J/K/kg
30.29 K | 54.99 J/K/kg
35.31 K | 68.01 J/K/kg
35.32 K | 68.01 J/K/kg
35.33 K | 68.06 J/K/kg
40.35 K | 80.38 J/K/kg
40.36 K | 80.53 J/K/kg and 80.38 J/K/kg
45.39 K | 92.13 J/K/kg
45.41 K | 91.88 J/K/kg
50.41 K | 103.44 J/K/kg
50.43 K | 103.49 J/K/kg
50.46 K | 103.13 J/K/kg
55.45 K | 113.77 J/K/kg
55.46 K | 113.98 J/K/kg
55.5 K | 113.47 J/K/kg
60.48 K | 123.56 J/K/kg
60.5 K | 123.56 J/K/kg
60.52 K | 123.05 J/K/kg
65.51 K | 133.13 J/K/kg
65.54 K | 132.63 J/K/kg
65.55 K | 133.08 J/K/kg
70.55 K | 141.95 J/K/kg
70.56 K | 141.34 J/K/kg
70.6 K | 141.7 J/K/kg
75.58 K | 149.91 J/K/kg
75.59 K | 149.2 J/K/kg
75.64 K | 149.81 J/K/kg
80.61 K | 157.76 J/K/kg
80.63 K | 157.11 J/K/kg
80.67 K | 157.61 J/K/kg
85.63 K | 164.86 J/K/kg
85.64 K | 164.2 J/K/kg
85.72 K | 164.66 J/K/kg
90.68 K | 171.5 J/K/kg and 170.94 J/K/kg
90.75 K | 171.14 J/K/kg
95.71 K | 177.22 J/K/kg and 176.31 J/K/kg
95.78 K | 176.62 J/K/kg
100.78 K | 185.08 J/K/kg
100.82 K | 184.52 J/K/kg
100.86 K | 184.88 J/K/kg
105.73 K | 192.73 J/K/kg
105.87 K | 191.31 J/K/kg and 192.07 J/K/kg
113.71 K | 198.86 J/K/kg
113.79 K | 197.4 J/K/kg
113.83 K | 197.65 J/K/kg
121.68 K | 205.1 J/K/kg
121.71 K | 204.14 J/K/kg
121.77 K | 203.73 J/K/kg
129.62 K | 209.51 J/K/kg
129.64 K | 209.91 J/K/kg
129.7 K | 208.39 J/K/kg
137.55 K | 213.76 J/K/kg
137.59 K | 213.56 J/K/kg
137.61 K | 212.24 J/K/kg
145.48 K | 218.93 J/K/kg
145.53 K | 218.27 J/K/kg
145.54 K | 217.36 J/K/kg
153.41 K | 222.38 J/K/kg
153.42 K | 222.23 J/K/kg
153.44 K | 222.08 J/K/kg
161.35 K | 224.41 J/K/kg and 224.26 J/K/kg
161.36 K | 224.31 J/K/kg
169.28 K | 227.5 J/K/kg and 227.09 J/K/kg
169.3 K | 227.04 J/K/kg
177.2 K | 229.17 J/K/kg and 228.87 J/K/kg
177.22 K | 228.92 J/K/kg
185.1 K | 230.89 J/K/kg
185.14 K | 230.79 J/K/kg
185.15 K | 230.59 J/K/kg
193.03 K | 233.63 J/K/kg
193.06 K | 233.38 J/K/kg
193.08 K | 233.43 J/K/kg
200.95 K | 233.83 J/K/kg
200.99 K | 233.88 J/K/kg
201 K | 233.68 J/K/kg
201.42 K | 236.77 J/K/kg
201.44 K | 236.67 J/K/kg
201.53 K | 234.69 J/K/kg
206.43 K | 237.94 J/K/kg
206.46 K | 237.84 J/K/kg
206.54 K | 236.01 J/K/kg
208.87 K | 236.16 J/K/kg
208.91 K | 236.52 J/K/kg
208.92 K | 236.37 J/K/kg
211.46 K | 238.9 J/K/kg
211.47 K | 238.9 J/K/kg
211.55 K | 236.98 J/K/kg
216.49 K | 239.91 J/K/kg
216.55 K | 238.55 J/K/kg
216.78 K | 238.34 J/K/kg
216.82 K | 238.39 J/K/kg
216.83 K | 238.19 J/K/kg
221.51 K | 241.18 J/K/kg and 241.33 J/K/kg and 241.13 J/K/kg
221.53 K | 241.03 J/K/kg
221.59 K | 239.61 J/K/kg
224.71 K | 241.13 J/K/kg
224.75 K | 241.28 J/K/kg
224.76 K | 240.98 J/K/kg
225.58 K | 241.79 J/K/kg
225.61 K | 241.84 J/K/kg
226.54 K | 242.25 J/K/kg and 242.35 J/K/kg
226.61 K | 240.73 J/K/kg
229.65 K | 241.89 J/K/kg
229.68 K | 241.44 J/K/kg
231.54 K | 243.26 J/K/kg
231.76 K | 241.44 J/K/kg
232.62 K | 240.42 J/K/kg
232.68 K | 239.97 J/K/kg and 240.47 J/K/kg
233.72 K | 242.04 J/K/kg
233.75 K | 241.94 J/K/kg
236.76 K | 242.3 J/K/kg
237.69 K | 243.11 J/K/kg
237.73 K | 242.45 J/K/kg
240.54 K | 241.54 J/K/kg
240.6 K | 241.28 J/K/kg and 241.49 J/K/kg
241.59 K | 244.22 J/K/kg
